# Values quoted from earlier work as cited in US20030139466A1, “Methods for pretreating a subject with extracorporeal photopheresis” (priority 2001, published 2003).
# Key:
# monocytes = settings: plasma containing 8-methoxypsoralen and exposure to ultraviolet-A light (photopheresis)
# [1] = system: heart transplantation patients
SMILES,cytokine release (monocytes),One-year actuarial survival [1],patients who experience no rejection ([1]; initial postoperative period)
"COc1c2occc2cc2ccc(=O)oc12 [8-methoxypsoralen, 9-methoxy-7H-furo[3,2-g][1]-benzopyran-7-one]","releases tumor necrosis factor-alpha, IL-1, IL-6, and possibly IL-8",,
Cn1cnc([N+](=O)[O-])c1Sc1ncnc2nc[nH]c12 [azathioprine],,60%,< 10%
